# Patent US20040014209A1, “Compositions and methods for modulating cell differentiation” (priority 2002, published 2004)
# Legend:
# Wnt8 = target: T1, Wnt8 (Xenopus laevis, UniProt P28026); experiment: Block of Wnt8 induction of Siamois in animal caps; type: cell-based; conditions: RT-PCR at stage 10.5
# T1 construct: expressed in transfected cells; host or cells: Xenopus laevis embryos (mRNA injection at the two-cell stage), animal caps isolated at stage 9
# T1 sequence (P28026 23-358): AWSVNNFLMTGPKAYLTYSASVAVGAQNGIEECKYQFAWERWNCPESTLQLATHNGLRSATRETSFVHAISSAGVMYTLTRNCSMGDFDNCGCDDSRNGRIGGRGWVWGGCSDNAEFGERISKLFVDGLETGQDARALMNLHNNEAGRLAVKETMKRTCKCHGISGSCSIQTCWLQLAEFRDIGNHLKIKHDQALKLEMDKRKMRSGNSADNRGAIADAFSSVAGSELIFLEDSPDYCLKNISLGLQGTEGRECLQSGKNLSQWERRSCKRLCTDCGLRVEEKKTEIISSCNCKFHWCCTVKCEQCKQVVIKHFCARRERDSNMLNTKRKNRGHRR
# Procedure: FIG. 6. dkk-1 and crescent, but not frzb, induce cardiac specific gene expression in noncardiogenic tissue. (A) mRNAs encoding various Wnt and BMP antagonists were injected equatorially into ventral blastomeres at the four-cell stage. Ventral marginal zone (VMZ) tissue was then explanted from Xenopus laevis at stage 10 and cultured until analyzed by RT-PCR for gene expression at stage 30 (see Materials and Methods). (B) Injection of dkk-1 or crescent induced both markers of cardiac mesoderm (Tbx5 and Nkx2.5) and heart muscle-specific genes (cardiac isoform of troponin-I, Tnlc, and myosin heavy chain-α, MHCα) in VMZ tissue. frzb, in contrast, induced muscle actin (m. actin), which is primarily a skeletal muscle marker, but not cardiac specific gene expression. […] Wnt8 and Wnt antagonist mRNAs were injected into the animal region of two-cell-stage embryos and caps were isolated at stage 9, cultured, and processed for RT-PCR at stage 10.5 (F). […] EF1α expression is shown as a control for the RT reaction in all cases.
# The reason for the difference in doses of dkk-1 and crescent mRNA required to induce muscle actin and the cardiac-specific markers was explored further by evaluating their relative ability to block Siamois induction by Wnt8 (FIG. 6F, G). […]
# [1] = tested on: posterior lateral plate (PLP) mesoderm explants; experiment: Cardiac induction in posterior lateral plate (PLP) mesoderm explants; type: cell-based, chick; conditions: PLP mesoderm cocultured with transfected COS cells; RT-PCR
# Description: As crescent is expressed in anterior endoderm at approximately the stage expected for a heart-inducing factor, we investigated whether this Wnt inhibitor could induce the formation of heart muscle in explanted gastrula-stage posterior tissues. We made a replication-competent RCAS-crescent retrovirus and examined whether viral crescent expression can substitute for anterior endoderm in the cardiac induction assay. Explants of either PLP-mesoderm or PPS were infected with RCAS viruses encoding either crescent (RCAS-crescent) or alkaline phosphatase (RCAS-AP).
# Eggs were incubated to the given stage (Hamburger and Hamilton 1951), and tissues were dissected with tungsten needles in Tyrodes solution using 1% agar dishes as a base. Serum-free medium containing insulin, transferrin, and selenium was adapted from Stern and Hauschka (1995) and supplemented with 2% chick embryo extract (Life Technologies). Virally infected explants were incubated on ice with viral supernatant diluted 1:1 with culture medium for 1-2 h, then cultured overnight in a sandwich of 35% collagen pads and overlaid with the above concentration of viral supernatant and medium containing 8 μg/mL polybrene. The following day, 0.25 mL of culture medium was added to each well. Anterior endoderm and COS cell cocultures were carried out on 2-μ pore size Nucleopore filters floating on culture medium. […]
substance,measurement,setting,value
dkk-1,Wnt8 induction of Siamois,Wnt8,block Wnt8 induction of Siamois
same,"Cardiac gene expression (Nkx-2.5, CMHC1)",[1],induced both Nkx2.5 and CMHC1
